Literature values, collected in patent publication US6391332B1, “Therapeutic micronutrient composition for severe trauma, burns and critical illness” (Baxter International, Inc., priority 2000, dated 2002).

Assays:
burn patients = conditions: 2-10 grams given during burn resuscitation
critically ill patients = conditions: glutamine supplementation, clinical trials
[1] = doses exceeding 40 grams a day

For `O=C1O[C@H]([C@@H](O)CO)C(O)=C1O` [ascorbic acid], the “vascular permeability and fluid requirements” value (burn patients) is given as “significantly decrease”.
In the case of `NC(=O)CC[C@H](N)C(=O)O` [glutamine, L-glutamine], the infection rate (critically ill patients) is given as “decreased infection rate”.
In the case of `N=C(N)NCCC[C@H](N)C(=O)O` [arginine, L-arginine], the toxicity [1] is listed as “non-toxic”.
